Reference: patent US20220193013A1, “Pharmaceutical Composition for Treatment or Prevention of Multiple Inflammatory Disorders” (priority 2020, published 2022)

Assays:
[1] = system: DIO mice (C57BL/6NTac, high fat diet); assay: body weight study in diet-induced obese (DIO) mice, 56 days; format: in vivo, mouse
Description: This example provides results of a study of DA plus another compound (CQL) on body weight in diet-induced (DIO) mice. Adult C57BL/6NTac mice were fed with a high fat diet (60%). Vehicle group (N=15) were treated with distilled water by gavage BID, CQL (N=15) were treated at 50 mg/kg by gavage BID, and DA (N=15) at a dose of 92.4 mg/kg by gavage BID. The study period was for 56 days+2-3 days testing period afterward. […] Metabolic biomarkers were measured on days 28 and 56. Cytokine analysis on Days 28 and 56. Serum levels of GLP-1, GLP-2, and CCK at 1 h after dosing on Days 1 and 56, and at 2 h after dosing on Day 7 (dosing (>6 h fasting prior to dosing until after blood collection); and serum level of PPY on Day 56.

[2] = system: mouse peritoneum macrophages; assay: LPS-stimulated mouse peritoneal macrophages, cytokine analysis; format: cell-based; conditions: for GM-CSF, Significance @ 12 hour LPS incubation / IFNγ, Significance @ 12 hour LPS incubation / IL-1α, Significance @ 12 hour LPS incubation / IL-1β, Significance @ 12 hour LPS incubation / IL-2, Significance @ 12 hour LPS incubation / IL-4, Significance @ 12 hour LPS incubation / IL-6, Significance @ 12 hour LPS incubation / IL-7, Significance @ 12 hour LPS incubation / IL-10, Significance @ 12 hour LPS incubation / IL-12 (p70), Significance @ 12 hour LPS incubation / IL-13, Significance @ 12 hour LPS incubation / IL-17A, Significance @ 12 hour LPS incubation / KC/CXCL1, Significance @ 12 hour LPS incubation / LIX, Significance @ 12 hour LPS incubation / MCP-1, Significance @ 12 hour LPS incubation / MIP-2, Significance @ 12 hour LPS incubation / TNF-α, Significance @ 12 hour LPS incubation: P value
Description: This example provides an […] study to determine the effect of DA on mouse peritoneum macrophages. Peritoneal exudates were obtained from Balb/c female mice by lavage 4 days after an intraperitoneal injection of 4 ml sterile 4% thioglycollate broth. After washing with RPMI 1640 medium, the cell suspensions were centrifuged at 800 g at 4° C. for 5 min. The red blood cells were eliminated by ACK buffer and the cells were washed and resuspended in RPMI 1640 supplemented with 10% inactivated FBS, 10 mM HEPES, 2 mM glutamine, and 100 U/ml penicillin-[…] streptomycin. The peritoneal macrophages were plated in 24 well tissue culture plate (2×10^5 cells/mL/well) at 37° C. in a 5% CO2 humidified atmosphere. Macrophages were precultured in serum-free RPMI 1640 medium for 24 h to reduce mitogenic effects. Macrophages were pretreated with various concentrations of DA for 1 h prior to LPS treatment and stimulated with LPS (100 ng/mL) for 24 h. Treatment groups were: Table 4 At 12 and 24 h time points of stimulation, ˜200 ul of supernatant were removed and stored (−80° C.) for cytokine analysis ([…]). Cytokines analyzed were—GM-CSF, IFNγ, IL-1a, IL-1β, IL-2, IL-4, IL-5, IL-6, IL-7, IL-10, IL-12 (p70), IL-13, IL-17A, KC/CXCL1, LIX, MCP-1, MIP-2, TNF-α,

[3] = DA 92.4 mg/kg gavage BID, compared to vehicle
[4] = DA 92.4 mg/kg, CQL 50 mg/kg, gavage BID

CC(=O)[O-].CC[N+](CC)(CC(=O)Nc1c(C)cccc1C)Cc1ccccc1 [DA, denatonium acetate]
serum glucose levels ([1]; DA 92.4 mg/kg gavage BID): did not show a significant effect
daily food intake at Day 14 [1, 3]: significantly reduced
serum CCK levels at Day 56 [1, 3]: significantly increased
serum GLP-1 levels at Days 7 and 56 [1, 3]: significantly increased
serum GLP-2 levels at Day 56 [1, 3]: significantly increased
serum PYY levels at Day 56 [1, 3]: significantly increased
serum insulin level at Day 28 [1, 3]: significantly reduced
body weight gain at day 57 ([1]; DA 92.4 mg/kg gavage BID, compared to vehicle and CQL): significantly reduced
serum LDL levels at days 28 and 56 ([1]; DA 92.4 mg/kg gavage BID, compared to vehicle, no significant difference): noticeable decrease
serum HbA1c level at Day 28 [1, 4]: significantly reduced
serum HbA1c level at Day 56 [1, 4]: considerably increased
daily water intake at Day 28 ([1]; DA 92.4 mg/kg, CQL 50 mg/kg, gavage BID, compared to vehicle): significantly increased
serum Eotaxin, significance (p) of increase ([1]; day 28): 0.031
serum G-CSR, significance (p) of increase ([1]; day 28): 0.063
serum IL-6, significance (p) of increase ([1]; day 28): 0.041
serum IP-10, significance (p) of increase ([1]; day 28): 0.013
serum MIG, significance (p) of increase ([1]; day 28): no sig
serum Eotaxin, significance (p) of increase ([1]; day 56): no sig
serum G-CSR, significance (p) of increase ([1]; day 56): 0.039
serum IL-6, significance (p) of increase ([1]; day 56): no sig
serum IP-10, significance (p) of increase ([1]; day 56): no sig
serum MIG, significance (p) of increase ([1]; day 56): 0.028
GM-CSF, Significance @ 24 hour LPS incubation ([2]; DA 1 μM): No sig
IFNγ, Significance @ 24 hour LPS incubation ([2]; DA 1 μM): No sig
IL-1α, Significance @ 24 hour LPS incubation ([2]; DA 1 μM): No sig
IL-1β, Significance @ 24 hour LPS incubation ([2]; DA 1 μM): No sig
IL-2, Significance @ 24 hour LPS incubation ([2]; DA 1 μM): No sig
IL-4, Significance @ 24 hour LPS incubation ([2]; DA 1 μM): No sig
IL-6, Significance @ 24 hour LPS incubation ([2]; DA 1 μM): No sig
IL-7, Significance @ 24 hour LPS incubation ([2]; DA 1 μM): No sig
IL-10, Significance @ 24 hour LPS incubation ([2]; DA 1 μM): No sig
IL-12 (p70), Significance @ 24 hour LPS incubation ([2]; DA 1 μM): No sig
IL-13, Significance @ 24 hour LPS incubation ([2]; DA 1 μM): No sig
IL-17A, Significance @ 24 hour LPS incubation ([2]; DA 1 μM): No sig
KC/CXCL1, Significance @ 24 hour LPS incubation ([2]; DA 1 μM): No sig
LIX, Significance @ 24 hour LPS incubation ([2]; DA 1 μM): No sig
MCP-1, Significance @ 24 hour LPS incubation ([2]; DA 1 μM): No sig
MIP-2, Significance @ 24 hour LPS incubation ([2]; DA 1 μM): No sig
TNF-α, Significance @ 24 hour LPS incubation ([2]; DA 1 μM): No sig
GM-CSF, Significance @ 12 hour LPS incubation ([2]; DA 1 μM): 0.029
IFNγ, Significance @ 12 hour LPS incubation ([2]; DA 1 μM): 0.031
IL-1α, Significance @ 12 hour LPS incubation ([2]; DA 1 μM): 0.021
IL-1β, Significance @ 12 hour LPS incubation ([2]; DA 1 μM): 0.023
IL-2, Significance @ 12 hour LPS incubation ([2]; DA 1 μM): 0.005
IL-4, Significance @ 12 hour LPS incubation ([2]; DA 1 μM): 0.009
IL-6, Significance @ 12 hour LPS incubation ([2]; DA 1 μM): 0.096
IL-7, Significance @ 12 hour LPS incubation ([2]; DA 1 μM): 0.024
IL-10, Significance @ 12 hour LPS incubation ([2]; DA 1 μM): 0.045
IL-12 (p70), Significance @ 12 hour LPS incubation ([2]; DA 1 μM): 0.017
IL-13, Significance @ 12 hour LPS incubation ([2]; DA 1 μM): 0.038
IL-17A, Significance @ 12 hour LPS incubation ([2]; DA 1 μM): 0.044
KC/CXCL1, Significance @ 12 hour LPS incubation ([2]; DA 1 μM): No sig
LIX, Significance @ 12 hour LPS incubation ([2]; DA 1 μM): No sig
MCP-1, Significance @ 12 hour LPS incubation ([2]; DA 1 μM): No sig
MIP-2, Significance @ 12 hour LPS incubation ([2]; DA 1 μM): 0.081
TNF-α, Significance @ 12 hour LPS incubation ([2]; DA 1 μM): 0.059
GM-CSF, Significance @ 24 hour LPS incubation ([2]; DA 10 μM): no sig
IFNγ, Significance @ 24 hour LPS incubation ([2]; DA 10 μM): no sig
IL-1α, Significance @ 24 hour LPS incubation ([2]; DA 10 μM): no sig
IL-1β, Significance @ 24 hour LPS incubation ([2]; DA 10 μM): no sig
IL-2, Significance @ 24 hour LPS incubation ([2]; DA 10 μM): no sig
IL-4, Significance @ 24 hour LPS incubation ([2]; DA 10 μM): no sig
IL-6, Significance @ 24 hour LPS incubation ([2]; DA 10 μM): no sig
IL-7, Significance @ 24 hour LPS incubation ([2]; DA 10 μM): no sig
IL-10, Significance @ 24 hour LPS incubation ([2]; DA 10 μM): no sig
IL-12 (p70), Significance @ 24 hour LPS incubation ([2]; DA 10 μM): no sig
IL-13, Significance @ 24 hour LPS incubation ([2]; DA 10 μM): no sig
IL-17A, Significance @ 24 hour LPS incubation ([2]; DA 10 μM): no sig
KC/CXCL1, Significance @ 24 hour LPS incubation ([2]; DA 10 μM): no sig
LIX, Significance @ 24 hour LPS incubation ([2]; DA 10 μM): no sig
MCP-1, Significance @ 24 hour LPS incubation ([2]; DA 10 μM): no sig
MIP-2, Significance @ 24 hour LPS incubation ([2]; DA 10 μM): no sig
TNF-α, Significance @ 24 hour LPS incubation ([2]; DA 10 μM): no sig
GM-CSF, Significance @ 12 hour LPS incubation ([2]; DA 10 μM): no sig
IFNγ, Significance @ 12 hour LPS incubation ([2]; DA 10 μM): 0.037
IL-1α, Significance @ 12 hour LPS incubation ([2]; DA 10 μM): 0.036
IL-1β, Significance @ 12 hour LPS incubation ([2]; DA 10 μM): 0.023
IL-2, Significance @ 12 hour LPS incubation ([2]; DA 10 μM): 0.004
IL-4, Significance @ 12 hour LPS incubation ([2]; DA 10 μM): 0.009
IL-6, Significance @ 12 hour LPS incubation ([2]; DA 10 μM): 0.029
IL-7, Significance @ 12 hour LPS incubation ([2]; DA 10 μM): 0.010
IL-10, Significance @ 12 hour LPS incubation ([2]; DA 10 μM): 0.026
IL-12 (p70), Significance @ 12 hour LPS incubation ([2]; DA 10 μM): 0.007
IL-13, Significance @ 12 hour LPS incubation ([2]; DA 10 μM): 0.019
IL-17A, Significance @ 12 hour LPS incubation ([2]; DA 10 μM): 0.024
KC/CXCL1, Significance @ 12 hour LPS incubation ([2]; DA 10 μM): no sig
LIX, Significance @ 12 hour LPS incubation ([2]; DA 10 μM): no sig
MCP-1, Significance @ 12 hour LPS incubation ([2]; DA 10 μM): no sig
MIP-2, Significance @ 12 hour LPS incubation ([2]; DA 10 μM): 0.021
TNF-α, Significance @ 12 hour LPS incubation ([2]; DA 10 μM): 0.024
GM-CSF, Significance @ 24 hour LPS incubation ([2]; DA 100 μM): no sig
IFNγ, Significance @ 24 hour LPS incubation ([2]; DA 100 μM): no sig
IL-1α, Significance @ 24 hour LPS incubation ([2]; DA 100 μM): no sig
IL-1β, Significance @ 24 hour LPS incubation ([2]; DA 100 μM): no sig
IL-2, Significance @ 24 hour LPS incubation ([2]; DA 100 μM): no sig
IL-4, Significance @ 24 hour LPS incubation ([2]; DA 100 μM): no sig
IL-6, Significance @ 24 hour LPS incubation ([2]; DA 100 μM): no sig
IL-7, Significance @ 24 hour LPS incubation ([2]; DA 100 μM): no sig
IL-10, Significance @ 24 hour LPS incubation ([2]; DA 100 μM): no sig
IL-12 (p70), Significance @ 24 hour LPS incubation ([2]; DA 100 μM): no sig
IL-13, Significance @ 24 hour LPS incubation ([2]; DA 100 μM): no sig
IL-17A, Significance @ 24 hour LPS incubation ([2]; DA 100 μM): no sig
KC/CXCL1, Significance @ 24 hour LPS incubation ([2]; DA 100 μM): no sig
LIX, Significance @ 24 hour LPS incubation ([2]; DA 100 μM): no sig
MCP-1, Significance @ 24 hour LPS incubation ([2]; DA 100 μM): no sig
MIP-2, Significance @ 24 hour LPS incubation ([2]; DA 100 μM): no sig
TNF-α, Significance @ 24 hour LPS incubation ([2]; DA 100 μM): no sig
GM-CSF, Significance @ 12 hour LPS incubation ([2]; DA 100 μM): no sig
IL-10, Significance @ 12 hour LPS incubation ([2]; DA 100 μM): 0.015
IL-12 (p70), Significance @ 12 hour LPS incubation ([2]; DA 100 μM): 0.008
IL-13, Significance @ 12 hour LPS incubation ([2]; DA 100 μM): 0.021
IL-17A, Significance @ 12 hour LPS incubation ([2]; DA 100 μM): 0.042
KC/CXCL1, Significance @ 12 hour LPS incubation ([2]; DA 100 μM): 0.022
LIX, Significance @ 12 hour LPS incubation ([2]; DA 100 μM): no sig
MCP-1, Significance @ 12 hour LPS incubation ([2]; DA 100 μM): no sig
MIP-2, Significance @ 12 hour LPS incubation ([2]; DA 100 μM): 0.033
TNF-α, Significance @ 12 hour LPS incubation ([2]; DA 100 μM): 0.033
